Assay [1] has as its target TYK2 (Homo sapiens (Human), UniProt P29597). In words: JAK Caliper Enzyme Assay at 1 mM ATP (TYK2). The assay is classed as biochemical. Conditions: Caliper assay at 1 mM ATP.
The target in assay [2] is JAK1 (Homo sapiens (Human), UniProt P23458). Nature of the assay: JAK Caliper Enzyme Assay at 1 mM ATP (JAK1). The assay is classed as biochemical. The conditions noted are these: Caliper assay at 1 mM ATP.
Assay [3] deals with JAK2 (Homo sapiens (Human), UniProt O60674). In words: JAK Caliper Enzyme Assay at 1 mM ATP (JAK2). The conditions noted are these: Caliper assay at 1 mM ATP. In kind it is biochemical.
In assay [4] the target is JAK3 (Homo sapiens (Human), UniProt P52333). Nature of the assay: JAK Caliper Enzyme Assay at 1 mM ATP (JAK3). In kind it is biochemical. Conditions: Caliper assay at 1 mM ATP.
In assay [5] the test system is rhIFNγ stimulated STAT-3 phosphorylation in the A549 human epithelial cell line. Nature of the assay: A549 Cell Assay: Inhibition of pSTAT3. The assay is classed as cell-based. Conditions: A549 cells. The method in brief: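 A549 cells cultured 18 h were preincubated 1 h at 37° C with compound (0.3 nM to 10 μM, 0.1% DMSO) in DMEM with 0.2% BSA, then stimulated with 20 ng/mL rhIFNγ for 30 min. pSTAT3 Tyr705 in the lysates was measured by MSD immunoassay and expressed as percent inhibition.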

pIC50: −log10 of the molar value. Where a name gives a salt, the structure may show the parent alone.

Usually pIC50 stands for the negative decadic logarithm of the IC50, by convention in mol/L. A low value points to a large IC50.

Chain of TYK2 (P29597 whole entry): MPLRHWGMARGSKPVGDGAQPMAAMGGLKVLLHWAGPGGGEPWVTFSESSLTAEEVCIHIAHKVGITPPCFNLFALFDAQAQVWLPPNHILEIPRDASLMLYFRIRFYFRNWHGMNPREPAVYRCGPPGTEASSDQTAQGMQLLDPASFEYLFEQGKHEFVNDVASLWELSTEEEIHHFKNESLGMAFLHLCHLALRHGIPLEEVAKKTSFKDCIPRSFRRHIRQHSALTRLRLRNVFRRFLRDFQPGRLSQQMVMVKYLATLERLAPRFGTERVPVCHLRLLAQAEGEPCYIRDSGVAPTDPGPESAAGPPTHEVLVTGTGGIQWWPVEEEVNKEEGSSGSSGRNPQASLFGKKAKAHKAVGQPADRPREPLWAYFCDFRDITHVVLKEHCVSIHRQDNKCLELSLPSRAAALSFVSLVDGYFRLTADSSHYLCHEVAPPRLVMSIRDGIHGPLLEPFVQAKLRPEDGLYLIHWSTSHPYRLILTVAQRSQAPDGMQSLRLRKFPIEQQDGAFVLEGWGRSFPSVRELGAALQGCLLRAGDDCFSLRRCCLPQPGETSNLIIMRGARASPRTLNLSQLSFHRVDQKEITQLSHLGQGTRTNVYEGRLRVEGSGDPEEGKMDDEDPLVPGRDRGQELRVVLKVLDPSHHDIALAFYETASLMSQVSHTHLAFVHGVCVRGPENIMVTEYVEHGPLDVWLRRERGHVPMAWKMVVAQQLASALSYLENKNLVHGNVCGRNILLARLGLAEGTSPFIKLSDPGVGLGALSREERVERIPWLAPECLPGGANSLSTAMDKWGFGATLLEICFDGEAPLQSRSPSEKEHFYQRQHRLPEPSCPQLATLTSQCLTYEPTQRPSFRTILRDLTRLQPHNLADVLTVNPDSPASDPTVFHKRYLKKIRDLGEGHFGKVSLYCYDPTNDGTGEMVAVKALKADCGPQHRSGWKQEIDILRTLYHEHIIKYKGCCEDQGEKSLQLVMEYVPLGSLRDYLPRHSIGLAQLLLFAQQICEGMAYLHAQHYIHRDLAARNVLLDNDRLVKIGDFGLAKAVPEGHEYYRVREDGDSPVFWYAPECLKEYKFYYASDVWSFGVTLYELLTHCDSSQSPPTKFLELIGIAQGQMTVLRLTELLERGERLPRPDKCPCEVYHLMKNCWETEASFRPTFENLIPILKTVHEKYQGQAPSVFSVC
Chain of JAK3 (P52333 whole entry): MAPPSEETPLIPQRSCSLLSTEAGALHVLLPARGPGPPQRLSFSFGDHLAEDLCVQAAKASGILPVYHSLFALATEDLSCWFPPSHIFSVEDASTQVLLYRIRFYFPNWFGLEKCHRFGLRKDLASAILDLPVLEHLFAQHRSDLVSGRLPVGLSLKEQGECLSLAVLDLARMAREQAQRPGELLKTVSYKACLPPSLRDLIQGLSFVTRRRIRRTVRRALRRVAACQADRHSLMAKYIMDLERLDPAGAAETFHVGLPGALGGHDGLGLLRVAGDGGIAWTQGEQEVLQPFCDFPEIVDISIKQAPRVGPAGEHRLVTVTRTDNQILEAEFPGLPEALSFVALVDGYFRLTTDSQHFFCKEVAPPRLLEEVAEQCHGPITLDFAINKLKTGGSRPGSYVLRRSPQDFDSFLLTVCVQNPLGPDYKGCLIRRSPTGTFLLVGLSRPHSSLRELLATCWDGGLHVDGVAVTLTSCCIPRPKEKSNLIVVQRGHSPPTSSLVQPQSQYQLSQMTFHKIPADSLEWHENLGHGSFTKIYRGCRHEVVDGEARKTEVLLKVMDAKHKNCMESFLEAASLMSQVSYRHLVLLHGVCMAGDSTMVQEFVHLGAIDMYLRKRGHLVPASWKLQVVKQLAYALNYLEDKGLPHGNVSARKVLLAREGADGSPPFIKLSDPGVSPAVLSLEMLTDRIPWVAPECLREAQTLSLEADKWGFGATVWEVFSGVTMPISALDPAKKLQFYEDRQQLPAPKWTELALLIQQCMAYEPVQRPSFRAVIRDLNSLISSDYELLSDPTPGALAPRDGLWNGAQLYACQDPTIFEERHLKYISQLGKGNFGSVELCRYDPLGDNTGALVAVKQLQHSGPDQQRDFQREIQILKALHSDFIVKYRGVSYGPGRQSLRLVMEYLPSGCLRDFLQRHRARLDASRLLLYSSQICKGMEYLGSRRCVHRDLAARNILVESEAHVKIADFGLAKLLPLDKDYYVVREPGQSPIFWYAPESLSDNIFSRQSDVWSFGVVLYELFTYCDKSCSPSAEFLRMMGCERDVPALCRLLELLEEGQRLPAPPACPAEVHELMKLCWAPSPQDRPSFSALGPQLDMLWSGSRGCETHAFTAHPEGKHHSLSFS
Chain of JAK2 (O60674 whole entry): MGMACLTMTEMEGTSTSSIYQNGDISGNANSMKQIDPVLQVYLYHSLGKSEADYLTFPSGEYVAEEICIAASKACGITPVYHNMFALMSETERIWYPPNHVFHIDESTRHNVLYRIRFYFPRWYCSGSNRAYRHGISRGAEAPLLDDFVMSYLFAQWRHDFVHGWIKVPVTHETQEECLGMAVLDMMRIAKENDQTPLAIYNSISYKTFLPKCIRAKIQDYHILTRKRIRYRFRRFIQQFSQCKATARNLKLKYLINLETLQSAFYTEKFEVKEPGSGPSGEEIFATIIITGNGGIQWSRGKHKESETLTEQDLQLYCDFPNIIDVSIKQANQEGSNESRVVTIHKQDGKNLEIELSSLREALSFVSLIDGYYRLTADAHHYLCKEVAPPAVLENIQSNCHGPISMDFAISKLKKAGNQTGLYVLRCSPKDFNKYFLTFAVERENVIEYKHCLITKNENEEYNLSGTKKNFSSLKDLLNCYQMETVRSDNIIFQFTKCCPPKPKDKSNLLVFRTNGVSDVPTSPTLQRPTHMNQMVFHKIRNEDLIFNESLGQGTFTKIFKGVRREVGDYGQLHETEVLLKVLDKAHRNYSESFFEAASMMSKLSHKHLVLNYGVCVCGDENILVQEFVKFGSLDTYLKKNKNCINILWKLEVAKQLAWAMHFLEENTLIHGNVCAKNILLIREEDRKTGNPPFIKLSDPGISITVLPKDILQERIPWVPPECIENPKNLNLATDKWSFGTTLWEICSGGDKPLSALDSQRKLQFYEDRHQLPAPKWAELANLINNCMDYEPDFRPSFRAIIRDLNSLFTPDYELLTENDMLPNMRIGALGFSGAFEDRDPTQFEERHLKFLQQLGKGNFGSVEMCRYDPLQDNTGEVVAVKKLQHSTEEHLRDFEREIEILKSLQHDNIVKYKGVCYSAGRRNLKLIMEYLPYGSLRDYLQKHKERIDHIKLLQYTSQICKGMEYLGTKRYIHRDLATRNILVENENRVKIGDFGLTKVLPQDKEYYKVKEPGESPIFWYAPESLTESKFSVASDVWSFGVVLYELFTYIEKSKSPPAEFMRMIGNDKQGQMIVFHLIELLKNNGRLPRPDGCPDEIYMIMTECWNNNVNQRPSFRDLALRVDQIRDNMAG
Chain of JAK1 (P23458 whole entry): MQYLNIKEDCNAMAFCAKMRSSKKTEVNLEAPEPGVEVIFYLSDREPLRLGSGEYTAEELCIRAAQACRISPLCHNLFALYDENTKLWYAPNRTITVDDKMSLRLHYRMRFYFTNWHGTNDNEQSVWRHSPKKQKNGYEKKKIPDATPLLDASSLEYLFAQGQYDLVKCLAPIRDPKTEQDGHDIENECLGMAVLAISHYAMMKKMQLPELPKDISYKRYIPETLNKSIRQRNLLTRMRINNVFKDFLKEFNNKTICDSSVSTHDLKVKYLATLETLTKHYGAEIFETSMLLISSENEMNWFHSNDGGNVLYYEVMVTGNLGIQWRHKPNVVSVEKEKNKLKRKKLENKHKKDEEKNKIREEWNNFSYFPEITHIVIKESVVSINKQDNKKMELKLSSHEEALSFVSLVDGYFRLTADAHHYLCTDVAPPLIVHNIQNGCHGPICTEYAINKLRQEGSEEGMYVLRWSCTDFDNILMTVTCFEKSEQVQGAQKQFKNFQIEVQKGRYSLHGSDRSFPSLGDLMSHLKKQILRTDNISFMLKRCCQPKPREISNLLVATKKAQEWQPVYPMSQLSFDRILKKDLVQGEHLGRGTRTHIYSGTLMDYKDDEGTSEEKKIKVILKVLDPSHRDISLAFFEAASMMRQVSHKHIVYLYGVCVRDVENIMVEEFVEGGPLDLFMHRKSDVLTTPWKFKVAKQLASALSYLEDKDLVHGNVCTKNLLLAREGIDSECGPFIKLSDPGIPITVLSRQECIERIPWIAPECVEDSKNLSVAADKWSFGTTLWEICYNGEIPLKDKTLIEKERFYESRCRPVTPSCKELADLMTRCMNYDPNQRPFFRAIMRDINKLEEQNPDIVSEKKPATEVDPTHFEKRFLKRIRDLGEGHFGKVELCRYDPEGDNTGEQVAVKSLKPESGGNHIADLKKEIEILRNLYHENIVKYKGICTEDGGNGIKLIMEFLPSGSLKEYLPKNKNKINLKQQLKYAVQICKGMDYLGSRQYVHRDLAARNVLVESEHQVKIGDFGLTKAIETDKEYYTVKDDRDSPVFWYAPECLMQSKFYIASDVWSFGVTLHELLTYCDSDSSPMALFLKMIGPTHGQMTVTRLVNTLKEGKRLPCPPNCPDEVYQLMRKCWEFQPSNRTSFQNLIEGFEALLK

As for `CCc1cc(O)ccc1-c1cc2[nH]ncc2c(N2CCC(S(=O)(=O)N(C)C)C2)n1` (racemic) [Example 126, 1-[6-(2-ethyl-4-hydroxyphenyl)-1H-pyrazolo[4,3-c]pyridin-4-yl]-N, N-dimethylpyrrolidine-3-sulfonamide (racemic)], the pIC50 was 6.18 in assay [1], 8.09 in assay [2], 7.63 in assay [3] and 7.45 in assay [4].

Take `CCc1cc(O)c(F)cc1-c1cc2[nH]nc(C(=O)NC)c2c(NCc2ccccc2N(CC)S(C)(=O)=O)n1` [Example 9, 6-(2-ethyl-5-fluoro-4-hydroxyphenyl)-4-({2-[ethyl(methylsulfonyl)amino]benzyl}amino)-N-methyl-1H-pyrazolo[4,3-c]pyridine-3-carboxamide]: the pIC50 in assay [1] was 8.14; in assay [5] (Homo sapiens), 7.83; in assay [2] it was 8.77; in assay [3], 7.97; in assay [4], 7.22.

Take `CCc1cc(O)c(F)cc1-c1cc2[nH]nc(C(=O)NC)c2c(NCC2CCCC2)n1` [Example 10, 4-[(cyclopentylmethyl)amino]-6-(2-ethyl-5-fluoro-4-hydroxyphenyl)-N-methyl-1H-pyrazolo[4,3-c]pyridine-3-carboxamide]: the pIC50 in assay [1] is 7.75; in assay [5] (Homo sapiens), 7.59; in assay [2], 8.33; in assay [3], 7.72; in assay [4] it was 7.03.

With `CCN(c1ccccc1CNc1nc(-c2cc(F)c(O)cc2CC(F)(F)F)cc2[nH]nc(C(=O)NC)c12)S(C)(=O)=O` [Example 12, 4-({2-[ethyl(methylsulfonyl)amino]benzyl}amino)-6-[5-fluoro-4-hydroxy-2-(2,2,2-trifluoroethyl)phenyl]-N-methyl-1H-pyrazolo[4,3-c]pyridine-3-carboxamide], the pIC50 in assay [1] is 7.61; in assay [5] (Homo sapiens), 7.35; in assay [2] it was 8.19; in assay [3] it was 7.50; in assay [4], 6.92.

As for `CNC(=O)c1n[nH]c2cc(-c3cc(F)c(O)cc3CC(F)(F)F)nc(NCc3c(F)cccc3N(C)S(C)(=O)=O)c12` [Example 18, 6-[5-fluoro-4-hydroxy-2-(2,2,2-trifluoroethyl)phenyl]-4-({2-fluoro-6-[methyl(methylsulfonyl)amino]benzyl}amino)-N-methyl-1H-pyrazolo[4,3-c]pyridine-3-carboxamide], the pIC50 was 7.51 in assay [1], 7.01 in assay [5] (Homo sapiens), 8.40 in assay [2] and 7.14 in assay [4].

`CCNC(=O)c1n[nH]c2cc(-c3cc(F)c(O)cc3CC(F)(F)F)nc(NCc3nccnc3N(CC)S(C)(=O)=O)c12` [Example 46, N-ethyl-4-[({3-[ethyl(methylsulfonyl)amino]pyrazin-2-yl}methyl)amino]-6-[5-fluoro-4-hydroxy-2-(2,2,2-trifluoroethyl)phenyl]-1H-pyrazolo[4,3-c]pyridine-3-carboxamide]: the negative-log IC50 (pIC50) in assay [2] was 7.48; in assay [4], 6.75.

`CNC(=O)c1n[nH]c2cc(-c3cc(F)c(O)cc3CC(F)(F)F)nc(NCc3cc(O)ccc3N(C)S(C)(=O)=O)c12` [Example 50]: the pIC50 in assay [1] is 7.98; in assay [5], 6.49; in assay [3], 7.97; in assay [4] it was 7.32.

As to `CCc1cc(O)ccc1-c1cc2[nH]ncc2c(N2CCc3c(cccc3C(=O)NCc3ccccc3)C2)n1` [Example 117, N-benzyl-2-[6-(2-ethyl-4-hydroxyphenyl)-1H-pyrazolo[4,3-c]pyridin-4-yl]-1,2,3,4-tetrahydroisoquinoline-5-carboxamide formate], the pIC50 was 6.37 in assay [1] and 7.38 in assay [4].

For the compound `CCc1cc(O)c(F)cc1-c1cc2[nH]ncc2c(N(CCc2ccc(NS(C)(=O)=O)cc2)Cc2ccccc2N(C)S(C)(=O)=O)n1` [Example 130, N-[2-({[6-(2-ethyl-5-fluoro-4-hydroxyphenyl)-1H-pyrazolo[4,3-c]pyridin-4-yl](2-{4-[(methylsulfonyl)amino]phenyl}ethyl)amino}methyl)phenyl]-N-methylmethanesulfonamide hydrochloride], the negative-log IC50 (pIC50) in assay [1] is 6.71; in assay [5] (Homo sapiens), 6.14; in assay [2], 7.36; in assay [4], 5.87.

For the compound `CCc1cc(O)c(F)cc1-c1cc2[nH]ncc2c(NCc2ccccc2N(CC)S(C)(=O)=O)n1` [Example 138, N-ethyl-N-[2-({[6-(2-ethyl-5-fluoro-4-hydroxyphenyl)-1H-pyrazolo[4,3-c]pyridin-4-yl]amino}-methyl)phenyl]methanesulfonamide], the pIC50 in assay [1] is 8.32; in assay [5] (Homo sapiens) it was 8.27; in assay [3], 8.59; in assay [4] it was 7.85.

In assay [2], `CCCCN(c1ccccc1CNc1nc(-c2cc(F)c(O)cc2CC)cc2[nH]ncc12)S(C)(=O)=O` [Example 139, N-butyl-N-[2-({[6-(2-ethyl-5-fluoro-4-hydroxyphenyl)-1H-pyrazolo[4,3-c]pyridin-4-yl]amino}-methyl)phenyl]methanesulfonamide] showed a pIC50 of 8.07.

`CN(c1ccccc1CNc1nc(-c2cc(F)c(O)cc2CC(F)(F)F)cc2[nH]nc(-n3cccn3)c12)S(C)(=O)=O` [Example 163, N-{2-[({6-[5-Fluoro-4-hydroxy-2-(2,2,2-trifluoroethyl)phenyl]-3-(1H-pyrazol-1-yl)-1H-pyrazolo[4,3-c]pyridin-4-yl}amino)methyl]phenyl}-N-methylmethanesulfonamide]: in assay [5] (Homo sapiens), the negative-log IC50 (pIC50) was 7.01.

For `CN(c1ccc(O)cc1CNc1nc(-c2cc(F)c(O)cc2CC(F)(F)F)nc2[nH]nc(-c3nnc(C4CCN(C(N)=O)CC4)[nH]3)c12)S(C)(=O)=O` [Example 167, 4-(5-{6-[5-Fluoro-4-hydroxy-2-(2,2,2-trifluoroethyl)phenyl]-4-({5-hydroxy-2-[methyl(methylsulfonyl)amino]benzyl}amino)-1H-pyrazolo[3,4-d]pyrimidin-3-yl}-4H-1,2,4-triazol-3-yl)piperidine-1-carboxamide], the pIC50 in assay [5] (Homo sapiens) is below 5.00.

On to `CN(c1ccccc1CNc1nc(-c2cc(F)c(O)cc2CC(F)(F)F)nc2[nH]nc(-c3nnc(C4CCN(C(=O)CN5CCCC5)CC4)[nH]3)c12)S(C)(=O)=O` [Example 168, N-(2-{[(6-[5-Fluoro-4-hydroxy-2-(2,2,2-trifluoroethyl)phenyl]-3-{5-[1-(pyrrolidin-1-ylacetyl)piperidin-4-yl]-4H-1,2,4-triazol-3-yl}-1H-pyrazolo[3,4-d]pyrimidin-4-yl)amino]methyl}phenyl)-N-methylmethanesulfonamide], for which the pIC50 in assay [5] (Homo sapiens) was 5.88.

`CC(CO)CNc1nc(-c2cc(F)c(O)cc2CC(F)(F)F)nc2[nH]nc(-c3nc4c([nH]3)CCN(Cc3ccccc3)C4)c12` (centres unmarked) [Example 173, 4-(3-(5-Benzyl-4,5,6,7-tetrahydro-1H-imidazo[4,5-c]pyridin-2-yl)-4-((3-hydroxy-2-methylpropyl)amino)-1H-pyrazolo[3,4-d]pyrimidin-6-yl)-2-fluoro-5-(2,2,2-trifluoroethyl)phenol]: in assay [5] (Homo sapiens), the pIC50 was 6.66.

The values above are taken from US10022376B2 (Pfizer Inc., priority 2014, dated 2018).
